Assay results published in US8883746B2, “α-galactosylceramide derivatives, pharmaceutically acceptable salts thereof, preparation method and pharmaceutical composition for the immune adjuvant containing the same as an active ingredient” (SNU R&DB Foundation, priority 2006, dated 2014).

How the values were obtained:
[1] = test system: DN32.D3 NKT hybridoma cells; assay: Stimulatory activity for NKT hybridoma cells (IL-2 secretion, ELISA); assay type: cell-based, mouse; details: for IL-2 production compared to α-GalCer: mouse CD1d-bearing RBL cells loaded 4 hrs, co-incubated with DN32.D3 for 16 hrs, FIG. 1; for Stimulatory effect (IL-2) compared to α-GalCer: low concentration (32 ng/mL)
Experimental: Determination of Stimulatory Activity for NKT Hybridoma Cell (Zhou et al., Science, 306:1786-1789, 2004)
Mouse CD1d-bearing rat basophilic leukemia (RBL) cells were incubated with various concentrations of α-GalCer or the α-GalCer derivatives prepared in Examples for 4 hrs. After removing free glycolipids by washing with PBS (phosphate-buffer saline) three times, RBL cells were incubated with DN32.D3 NKT hybridoma cells for 16 hrs. IL-2 secretion levels in the supernatant were determined through ELISA (Enzyme-Linked Immunosorbent Assay).

[2] = test system: Splenocytes from naïve C57BL/6 mice; assay: Cytokine levels (IFN-γ, IL-4) produced by mouse splenocytes, ELISA; assay type: cell-based; details: 72 hrs; for IL-4 secretion compared to α-GalCer: high concentrations (125 ng/ml), FIG. 3(a); for IL-4 production compared with α-GalCer: FIG. 3(b) (2 ng/ml)
Experimental: Evaluation of Cytokine Levels Produced by Mouse Splenocyte
Splenocytes from naïve C57BL/6 mice were incubated with various concentrations of α-GalCer or α-GalCer derivatives for 72 hrs. IFN-γ and IL-4 secretion levels in the supernatant were determined through ELISA.

NKT cells = details: literature (Goff et al., 2004); cited from earlier work
naïve C57BL/6 mice = assay: IFN-γ and IL-4 production level in vivo (serum, ELISA); details: 1 μg/mouse intravenously
Experimental: Examination of IFN-γ and IL-4 Production Level In Vivo
α-GalCer or the α-GalCer derivatives (1 μg/mouse) were intravenously injected into naïve C57BL/6 mice. The serum concentrations of IFN-γ and IL-4 at each time point were determined through ELISA.

CCCCCCCCCCCCCC[C@@H](O)[C@@H](O)[C@H](CO[C@H]1OC(CO)[C@H](O)[C@H](O)[C@H]1O)n1cc(CCCCCC)nn1 (stereo partly drawn) [Example 1, (2S,3R,4S,5R)-2-((2S,3S,4R)-2-(4-hexyl-1H-1,2,3-triazol-1-yl)-3,4-dihydroxyoctadecyloxy)-6-(hydroxymethyl)-tetrahydro-2H-pyrane-3,4,5-triol]
IL-2 production compared to α-GalCer [1]: ineffective

CCCCCCCCCCCCCC[C@@H](O)[C@@H](O)[C@H](CO[C@H]1OC(CO)[C@H](O)[C@H](O)[C@H]1O)n1cc(CCCCCCC)nn1 (stereo partly drawn) [Example 2, (2S,3R,4S,5R)-2-((2S,3S,4R)-2-(4-heptyl-1H-1,2,3-triazol-1-yl)-3,4-dihydroxyoctadecyloxy)-6-(hydroxymethyl)-tetrahydro-2H-pyrane-3,4,5-triol]
IL-2 production compared to α-GalCer [1]: ineffective
IL-4 secretion compared to α-GalCer [2]: equivalent or greater IL-4 secretion than did α-GalCer

CCCCCCCCCCCCCCCCc1cn([C@@H](CO[C@H]2OC(CO)[C@H](O)[C@H](O)[C@H]2O)[C@H](O)[C@H](O)CCCCCCCCCCCCCC)nn1 (stereo partly drawn) [Example 3, (2S,3R,4S,5R)-2-((2S,3S,4R)-2-(4-hexadecyl-1H-1,2,3-triazol-1-yl)-3,4-dihydroxyoctadecyloxy)-6-(hydroxymethyl)-tetrahydro-2H-pyrane-3,4,5-triol]
IL-2 production compared to α-GalCer [1]: not active in practice
melting point: 162 to 164 °C

CCCCCCCCCCCCCCCCCCCCCCCc1cn([C@@H](CO[C@H]2OC(CO)[C@H](O)[C@H](O)[C@H]2O)[C@H](O)[C@H](O)CCCCCCCCCCCCCC)nn1 (stereo partly drawn) [Example 4, (2S,3R,4S,5R)-2-((2S,3S,4R)-3,4-dihydroxy-2-(4-tricosyl-1H-1,2,3-triazol-1-yl)octadecyloxy)-6-(hydroxymethyl)-tetranydro-2H-pyrane-3,4,5-triol]
IL-4 secretion compared to α-GalCer [2]: equivalent or greater IL-4 secretion than did α-GalCer

CCCCCCCCCCCCCCCCCCCCCCCCc1cn([C@@H](CO[C@H]2OC(CO)[C@H](O)[C@H](O)[C@H]2O)[C@H](O)[C@H](O)CCCCCCCCCCCCCC)nn1 (stereo partly drawn) [Example 5, (2S,3R,4S,5R)-2-((2S,3S,4R)-3,4-dihydroxy-2-(4-tetracosyl-1H-1,2,3-triazol-1-yl)octadecyloxy)-6-(hydroxymethyl)-tetrahydro-2H-pyrane-3,4,5-triol]
Stimulatory effect (IL-2) compared to α-GalCer [1]: comparable stimulatory effects to α-GalCer
IL-4 secretion compared to α-GalCer [2]: equivalent or greater IL-4 secretion than did α-GalCer
melting point: 167 to 169 °C

CCCCCCCCCCCCCCCCCCCCCCCCCc1cn([C@@H](CO[C@H]2OC(CO)[C@H](O)[C@H](O)[C@H]2O)[C@H](O)[C@H](O)CCCCCCCCCCCCCC)nn1 (stereo partly drawn) [Example 6, (2S,3R,4S,5R)-2-((2S,3S,4R)-3,4-dihydroxy-2-(4-pentacosyl-1H-1,2,3-triazol-1-yl)octadecyloxy)-6-(hydroxymethyl)-tetrahydro-2H-pyrane-3,4,5-triol]
melting point: 165 to 167 °C

CCCCCCCCCCCCCC[C@@H](O)[C@@H](O)[C@H](CO[C@H]1OC(CO)[C@H](O)[C@H](O)[C@H]1O)n1cc(CCCCCCc2ccccc2)nn1 (stereo partly drawn) [Example 7, (2S,3R,4S,5R)-2-((2S,3S,4R)-3,4-dihydroxy-2-(4-(6-phenylhexyl)-1H-1,2,3-triazol-1-yl)octadecyloxy)-6-(hydroxymethyl)-tetrahydro-2H-pyrane-3,4,5-triol]
IL-2 production compared to α-GalCer [1]: ineffective

CCCCCCCCCCCCCC[C@@H](O)[C@@H](O)[C@H](CO[C@H]1OC(CO)[C@H](O)[C@H](O)[C@H]1O)n1cc(CCCCCCCc2ccccc2)nn1 (stereo partly drawn) [Example 8, (2S,3R,4S,5R)-2-((2S,3S,4R)-3,4-dihydroxy-2-(4-(7-phenylheptyl)-1H-1,2,3-triazol-1-yl)octadecyloxy)-6-(hydroxymethyl)-tetrahydro-2H-pyrane-3,4,5-triol]
IL-2 production compared to α-GalCer [1]: ineffective

CCCCCCCCCCCCCC[C@@H](O)[C@@H](O)[C@H](CO[C@H]1OC(CO)[C@H](O)[C@H](O)[C@H]1O)n1cc(CCCCCCCCc2ccccc2)nn1 (stereo partly drawn) [Example 9, (2S,3R,4S,5R)-2-((2S,3S,4R)-3,4-dihydroxy-2-(4-(8-phenyloctyl)-1H-1,2,3-triazol-1-yl)octadecyloxy)-6-(hydroxymethyl)-tetrahydro-2H-pyrane-3,4,5-triol]
IL-2 production compared to α-GalCer [1]: ineffective

CCCCCCCCCCCCCC[C@@H](O)[C@@H](O)[C@H](CO[C@H]1OC(CO)[C@H](O)[C@H](O)[C@H]1O)NC(=O)CCCCCCCCCCCN (stereo partly drawn) [Example 11, 12-amino-N-((2S,3S,4R)-3,4-dihydroxy-1-((2S,3R,4S,5R)-3,4,5-trihydroxy-6-(hydroxymethyl)-tetrahydro-2H-pyran-2-yloxy)octadecan-2-yl)dodecanamide]
Stimulatory effect (IL-2) compared to α-GalCer [1]: comparable stimulatory effects to α-GalCer
IL-4 production compared with α-GalCer [2]: more IL-4 production compared with α-GalCer

CCCCCCCCCCCCCC[C@@H](O)[C@@H](O)[C@H](CO[C@H]1OC(CO)[C@H](O)[C@H](O)[C@H]1O)NC(=O)CCCCCCCCCCO (stereo partly drawn) [Example 12, N-((2S,3S,4R)-3,4-dihydroxy-1-((2S,3R,4S,5R)-3,4,5-trihydroxy-6-(hydroxymethyl)-tetrahydro-2H-pyran-2-yloxy)octadecan-2-yl)-11-hydroxyundecanamide]
Stimulatory effect (IL-2) compared to α-GalCer [1]: comparable stimulatory effects to α-GalCer

CCCCCCCCCCCCCC[C@@H](O)[C@@H](O)[C@H](CO[C@H]1OC(CO)[C@H](O)[C@H](O)[C@H]1O)NC(=O)CCCCCCCCCCCO (stereo partly drawn) [Example 13, N-((2S,3S,4R)-3,4-dihydroxy-1-((2S,3R,4S,5R)-3,4,5-trihydroxy-6-(hydroxymethyl)-tetrahydro-2H-pyran-2-yloxy)octadecan-2-yl)-12-hydroxydodecanamide]
IL-4 production compared with α-GalCer [2]: more IL-4 production compared with α-GalCer

CCCCCCCCCCCCCC[C@@H](O)[C@@H](O)[C@H](CO[C@H]1OC(CO)[C@H](O)[C@H](O)[C@H]1O)NC(=O)CCCCCCCCCCN(CCCCCCC)CCCCCCC (stereo partly drawn) [Example 16, 11-(diheptylamino)-N-((2S,3S,4R)-3,4-dihydroxy-1-((2S,3R,4S,5R)-3,4,5-trihydroxy-6-(hydroxymethyl)-tetrahydro-2H-pyran-2-yloxy)octadecan-2-yl)undecanamide]
Stimulatory effect (IL-2) compared to α-GalCer [1]: comparable stimulatory effects to α-GalCer
IL-4 production compared with α-GalCer [2]: more IL-4 production compared with α-GalCer

CCCCCCCCCCCCCC[C@@H](O)[C@@H](O)[C@H](CO[C@H]1O[C@H](CO)[C@H](O)[C@H](O)[C@H]1O)NC(=O)CCCCCCC [PBS-25]
Secretion of Th2-cytokines compared to α-GalCer (NKT cells): greater amount of Th2-cytokines, compared to α-GalCer

CCCCCCCCCCCCCCCCCCCCCCCCCC(=O)N[C@@H](CO[C@H]1O[C@H](CO)[C@H](O)[C@H](O)[C@H]1O)[C@H](O)[C@H](O)CCCCCCCCCCCCCC [α-GalCer, α-Galactosylceramide]
Time of peak of serum IFN-γ levels after administration (naïve C57BL/6 mice): 12 h
Time of rapid increase of serum IL-4 levels after administration (naïve C57BL/6 mice): ≤ 2 h
